Values of other authors in patent publication US20030125233A1, “Use of urokinase inhibitors for the treatment and/or prevention of pulmonary hypertension and/or cardiac remodelling” (priority 2000, published 2003).

Legend:
[1] = tested on: tumor metastasis; settings: Kellen et al. 1988
[2] = tested on: angiogenesis/capillary network formation; settings: Alliegro et al. 1991

N=C(N)NC(=O)c1nc(Cl)c(N)nc1N [amiloride]
tumor metastasis in vivo [1]: inhibit | angiogenesis/capillary network formation in vitro [2]: inhibit
